“Also recorded” adds a separate entry of the source.
Key:
[1] = tested on: MIP-2 mRNA; assay: RNase protection assay, MIP-2 mRNA expression
[2] = tested on: Rantes mRNA; assay: RNase protection assay, Rantes mRNA expression; settings: 60 Gy, 50 mg/kg Celebrex, vs 7.4±1.6 control, P<0.05, ratio to GAPDH or L32 mRNA
[3] = tested on: C-C and C-X-C chemokine receptors mRNA; assay: RNase protection assay, C-C and C-X-C chemokine receptor mRNA expression; format: in vivo, C3H/HeN mice
Protocol: (§1) Isotransplantable murine MCa-35 mammary tumor cells was inoculated i.m. into right hind thighs of 6-7 week-old female C3H/HeN mice (NCI, Fredrick, Md.). […] Mice were sacrificed 20 days after radiation.
(§2) Four experiment groups were used. […] Group 1 was radiation alone; mice in group 2 were given 50 mg/kg Celebrex 2 hours before radiation (2 hr pre-radiation); mice in group 3 and 4 were received the same amount of Celebrex at day 2 or day 7 post-radiation. […] All mice were sacrificed 20 day after radiation.
Total RNA was isolated from tumors and skin overlying tumors, respectively, with 9-10 mice in each treatment group by pulverizing the frozen tissue, and dissolved in TRI Reagent (Molecular Research Center, Ohio) according to the manufacturer's specifications.
Differences were considered significant for p<0.05.

[4] = tested on: MCP-1 mRNA; assay: RNase protection assay, MCP-1 mRNA expression; settings: 60 Gy
[5] = tested on: radiation (60 Gy) induced skin damage in MCa-35 mammary tumor-bearing mice; assay: Radiation induced skin damage by 5-scales Skin Scoring System; format: in vivo, C3H/HeN mice; settings: for mice with severe skin damage (grades 4-5): 20 days after radiation
Protocol: as §1, §2
Radiation induce skin damage was assessed using 5-scales Skin Scoring System. 20 days after single 60 Gy radiation, mice from each treatment group were determined blindly for the degree of skin damage by three investigators. Grade 1: normal skin; grade 2: slight hair loss in irradiated area; grade 3: radish and swollen tissue; grad 4: small area erosion; grade 5: small ulceration. Grades 2-3 is referred as mild, and grades 4-5 is considered as severe skin damage.

[6] = tested on: MCa-35 tumor and overlaying skin; assay: Histology of irradiated skin and MCa-35 tumor; format: in vivo, C3H/HeN mice
Source text: as §1
Tumors and the overlaying skin tissues were removed for histology and RNA preparation. Irradiated tissues (tumor and skin) were also collected for making paraffin blocks for immunohistochemical staining. Guidelines for the humane treatment of animals were followed as approved by the University of Rochester Committee on Animal Resources.
as §2
Immunohistochemistry methods have previously been described in detail. Immediately following cryostat sectioning, tissue slices (normal muscle and tumor) were stained with CD31 antibody (PharMingen Calif.) for determination of total vasculature. The stained sections were imaged using an epi-fluorescence equipped microscope, digitized (3-CCD camera), background-corrected, and image-analyzed using Image Pro software (Media Cybernetics, Mass.) and a 450 MHz Pentium computer. Color images from individual microscope fields were automatically acquired and digitally combined to form four montages of the tumor cross-section (total area=15.5 mm2) using a motorized stage and controller. The image montages were processed to enhance the contrast between background and CD31 staining. From the enhanced images, locations of CD31-stained vessels were recorded. The quantitative vascular information was analyzed using custom Fortran programs to perform a “closest individual” analysis as previously described. Briefly, the distances from computer-superimposed sampling points to the nearest blood vessel were determined. […]

Cc1ccc(-c2cc(C(F)(F)F)nn2-c2ccc(S(N)(=O)=O)cc2)cc1 [Celebrex]
tumor skin with high MIP-2 mRNA expression ([1]; after Celebrex treatment, 37.5% of mice with radiation alone): 14.3%-28.6%
effect on tumor MIP-2 mRNA ([1]; tumor tissue, 60 Gy): did not significantly alter
Rantes mRNA expression in irradiated skin tissues [2]: 2.3±1.1
CXCR4 mRNA expression ([3]; skin of Celebrex-treated mice with less radiation-induced skin damage): significantly reduced
mRNA expression of both C-C and C-X-C chemokine receptors in tumor skin ([3]; tumor skin, 60 Gy, not in tumor tissues): decrease mRNA expression
MCP-1 mRNA expression in irradiated skin tissues ([4]; irradiated skin, 50 mg/kg Celebrex, vs 18.8±3.2 control, p<0.05, ratio to GAPDH or L32 mRNA): 10.2±1.1
reduction of MCP-1 mRNA expression in tumor tissues ([4]; tumor tissue): not in tumor tissues
effect on radiation induced normal skin damage ([5]; 50 mg/kg daily gavage, 15 doses in three weeks, single 60 Gy): significantly reduced; also recorded: less radiation-induced skin damage
mice with severe skin damage (grades 4-5) ([5]; 50 mg/kg gavage started 2 hr pre-radiation, 15 doses, single 60 Gy): 17.6%
mice with severe skin damage (grades 4-5) ([5]; 50 mg/kg gavage started day 2 post-radiation, 15 doses, single 60 Gy): 5.3%
mice with severe skin damage (grades 4-5) ([5]; 50 mg/kg gavage started day 7 post-radiation, 10 doses, single 60 Gy): 11.1%
treated mice that still developed moderate or severe skin damage after radiation ([5]; 60 Gy, Celebrex-treated mice): 15-30%
effect on MCa-35 tumor histology (blood vessels, necrosis) ([6]; oral administration, compared with saline-treated controls): reduction of blood vessels
inflammation and inflammatory cell infiltration in the dermis ([6]; pre- (2 hr) or post-radiation (day 2 or day 7) treatment, compared with saline-treated controls): less inflammation and cellular component infiltration in the dermis; also recorded: less infiltration of inflammatory cells
infiltration of inflammatory cells in tumor tissue ([6]; tumor tissue, compared with saline controls): not obviously altered
